Source: PubChem BioAssay AID248 (DTP/NCI, 2004)
Toxic doses and inconclusive results are not listed.

System: L1210 leukemia ip in BDF1 mice, survival T/C
Experiment: NCI In Vivo Anticancer Drug Screen. Data for tumor model L1210 Leukemia (intraperitoneal) in B6D2F1 (BDF1) mice
Conditions: endpoint: mean survival time, higher = longer survival
Outline: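 Antitumor effect is assessed in tumor-bearing animals. Survival in the compound arm is compared with a vehicle-dosed control arm and expressed as their quotient.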

[1] = dose: 100.0 mg/kg/injection, schedule: Q04DX003 (ip), vehicle: Klucel (hydroxypropylcellulose) (HPC)
[2] = dose: 200.0 mg/kg/injection, schedule: Q04DX003 (ip), vehicle: Klucel (hydroxypropylcellulose) (HPC)
[3] = dose: 400.0 mg/kg/injection, schedule: Q04DX003 (ip), vehicle: Klucel (hydroxypropylcellulose) (HPC)
[4] = dose: 100.0 mg/kg/injection, schedule: Q01DX009 (ip), vehicle: saline with Tween-80
[5] = dose: 200.0 mg/kg/injection, schedule: Q01DX009 (ip), vehicle: saline with Tween-80
[6] = dose: 100.0 mg/kg/injection, schedule: Q01DX001 (ip), vehicle: carboxymethylcellulose (CMC)
[7] = dose: 200.0 mg/kg/injection, schedule: Q01DX001 (ip), vehicle: carboxymethylcellulose (CMC)
[8] = dose: 400.0 mg/kg/injection, schedule: Q01DX001 (ip), vehicle: carboxymethylcellulose (CMC)

In the case of `CC1(C)CC(Cc2ccccc2)C(=O)O1` (stereo unspecified), the T/C [1] is reported as 93 % of control, the T/C [2] is reported as 90 % of control and the T/C [3] is reported as 100 % of control.
In the case of `CS(=O)(=O)OCCN(CCOS(C)(=O)=O)c1ccc([N+](=O)[O-])c(C(F)(F)F)c1`, the T/C (dose: 50.0 mg/kg/injection, schedule: Q01DX001 (ip), vehicle: saline) is reported as 94 % of control, the T/C (dose: 100.0 mg/kg/injection, schedule: Q01DX001 (ip), vehicle: saline) is reported as 96 % of control and the T/C (dose: 200.0 mg/kg/injection, schedule: Q01DX001 (ip), vehicle: saline) is reported as 96 % of control. The T/C (dose: 400.0 mg/kg/injection, schedule: Q01DX001 (ip), vehicle: saline) was 94 % of control.
With `COc1cc(OCc2ccccc2)c(CC(=O)O)c([N+](=O)[O-])c1` the T/C (dose: 100.0 mg/kg/injection, schedule: Q01DX001 (ip), vehicle: other) was 104 % of control, the T/C (dose: 100.0 mg/kg/injection, schedule: Q01DX009 (ip), vehicle: other) was 93 % of control and the T/C (dose: 100.0 mg/kg/injection, schedule: Q04DX003 (ip), vehicle: other) was 100 % of control. For the same compound, the T/C (dose: 200.0 mg/kg/injection, schedule: Q01DX001 (ip), vehicle: other) was 100 % of control, the T/C (dose: 200.0 mg/kg/injection, schedule: Q01DX009 (ip), vehicle: other) was 106 % of control and the T/C (dose: 200.0 mg/kg/injection, schedule: Q04DX003 (ip), vehicle: other) was 94 % of control. The T/C (dose: 400.0 mg/kg/injection, schedule: Q01DX001 (ip), vehicle: other) was 94 % of control, the T/C (dose: 400.0 mg/kg/injection, schedule: Q01DX009 (ip), vehicle: other) was 103 % of control and the T/C (dose: 400.0 mg/kg/injection, schedule: Q04DX003 (ip), vehicle: other) was 94 % of control.
In the case of `CC/C(=C(\CC)c1ccc(OCC(=O)N(CCCl)CCCl)cc1)c1ccc(OCC(=O)N(CCCl)CCCl)cc1`, the T/C (dose: 5.0 mg/kg/injection, schedule: Q04DX002 (ip), vehicle: saline) is reported as 105 % of control, the T/C (dose: 10.0 mg/kg/injection, schedule: Q04DX002 (ip), vehicle: saline) is reported as 97 % of control and the T/C (dose: 20.0 mg/kg/injection, schedule: Q04DX002 (ip), vehicle: saline) is reported as 94 % of control.
For `O=C(O)c1ccsc1Cc1ccsc1`, the T/C (dose: 50.0 mg/kg/injection, schedule: Q01DX009 (ip), vehicle: saline with Tween-80) was 89 % of control, the T/C [4] was 96 % of control and the T/C [5] was 86 % of control.
With `Cc1ccc(N=Nc2ccc(C)cc2NC(=O)Nc2cccc(F)c2)cc1` the T/C [4] was 90 % of control, the T/C [5] was 90 % of control and the T/C (dose: 400.0 mg/kg/injection, schedule: Q01DX009 (ip), vehicle: saline with Tween-80) was 98 % of control.
With `Fc1ccc(CSc2ncnc3c2ncn3C2CCCCO2)cc1` (stereo unspecified) the T/C (dose: 3.0 mg/kg/injection, schedule: Q01DX015 (ip), vehicle: carboxymethylcellulose (CMC)) was 97 % of control, the T/C (dose: 6.0 mg/kg/injection, schedule: Q01DX015 (ip), vehicle: carboxymethylcellulose (CMC)) was 97 % of control and the T/C (dose: 12.0 mg/kg/injection, schedule: Q01DX015 (ip), vehicle: carboxymethylcellulose (CMC)) was 98 % of control. For the same compound, the T/C (dose: 25.0 mg/kg/injection, schedule: Q01DX015 (ip), vehicle: carboxymethylcellulose (CMC)) was 102 % of control, the T/C (dose: 50.0 mg/kg/injection, schedule: Q01DX015 (ip), vehicle: carboxymethylcellulose (CMC)) was 101 % of control and the T/C [6] was 96 % of control. The T/C (dose: 100.0 mg/kg/injection, schedule: Q01DX015 (ip), vehicle: carboxymethylcellulose (CMC)) was 103 % of control, the T/C [7] was 96 % of control and the T/C (dose: 200.0 mg/kg/injection, schedule: Q01DX015 (ip), vehicle: carboxymethylcellulose (CMC)) was 119 % of control. For the same compound, the T/C [8] was 102 % of control, the T/C (dose: 400.0 mg/kg/injection, schedule: Q01DX015 (ip), vehicle: carboxymethylcellulose (CMC)) was 166 % of control and the T/C (dose: 800.0 mg/kg/injection, schedule: Q01DX001 (ip), vehicle: carboxymethylcellulose (CMC)) was 102 % of control. The T/C (dose: 1600.0 mg/kg/injection, schedule: Q01DX001 (ip), vehicle: carboxymethylcellulose (CMC)) was 112 % of control.
`CCCCN=C(NCCCC)Oc1ccccc1` was tested, and the T/C (dose: 26.6 mg/kg/injection, schedule: Q01DX Z (ip), vehicle: methylcellulose (MC)) was 104 % of control, the T/C (dose: 40.0 mg/kg/injection, schedule: Q01DX Z (ip), vehicle: methylcellulose (MC)) was 102 % of control and the T/C (dose: 60.0 mg/kg/injection, schedule: Q01DX Z (ip), vehicle: methylcellulose (MC)) was 102 % of control.
In the case of `CCCN(CCC)CP(=O)(CN(CCC)CCC)CN(CCC)CCC`, the T/C (dose: 25.0 mg/kg/injection, schedule: Q04DX003 (ip), vehicle: saline with Tween-80) is reported as 92 % of control, the T/C (dose: 50.0 mg/kg/injection, schedule: Q04DX003 (ip), vehicle: saline with Tween-80) is reported as 90 % of control and the T/C (dose: 100.0 mg/kg/injection, schedule: Q04DX003 (ip), vehicle: saline with Tween-80) is reported as 93 % of control.
In the case of `O=C(CCc1ccccc1)c1ccccc1`, the T/C (dose: 100.0 mg/kg/injection, schedule: Q04DX002 (ip), vehicle: saline with Tween-80) is reported as 97 % of control, the T/C (dose: 200.0 mg/kg/injection, schedule: Q04DX002 (ip), vehicle: saline with Tween-80) is reported as 97 % of control and the T/C (dose: 400.0 mg/kg/injection, schedule: Q04DX002 (ip), vehicle: saline with Tween-80) is reported as 90 % of control.
With `Cc1ccccc1OCCO` the T/C (dose: 100.0 mg/kg/injection, schedule: Q04DX003 (ip), vehicle: saline) was 101 % of control, the T/C (dose: 200.0 mg/kg/injection, schedule: Q04DX003 (ip), vehicle: saline) was 97 % of control and the T/C (dose: 400.0 mg/kg/injection, schedule: Q04DX003 (ip), vehicle: saline) was 106 % of control.
`C#CC(NC(C)(C)CC(C)(C)C)C(C)C` (stereo unspecified) was tested, and the T/C (dose: 100.0 mg/kg/injection, schedule: Q04DX002 (ip), vehicle: saline) was 109 % of control, the T/C (dose: 200.0 mg/kg/injection, schedule: Q04DX002 (ip), vehicle: saline) was 109 % of control and the T/C (dose: 400.0 mg/kg/injection, schedule: Q04DX002 (ip), vehicle: saline) was 100 % of control.
For `CCCCCCCCCCCCCCCC(CCCC)c1ccccc1` (stereo unspecified), the T/C (dose: 100.0 mg/kg/injection, schedule: Q01DX001 (ip), vehicle: saline + alcohol) was 91 % of control, the T/C (dose: 200.0 mg/kg/injection, schedule: Q01DX001 (ip), vehicle: saline + alcohol) was 100 % of control and the T/C (dose: 400.0 mg/kg/injection, schedule: Q01DX001 (ip), vehicle: saline + alcohol) was 96 % of control.
In the case of `COc1ccc(-n2cccc2/C=N/O)cc1`, the T/C (dose: 100.0 mg/kg/injection, schedule: Q04DX002 (ip), vehicle: Klucel (hydroxypropylcellulose) (HPC)) is reported as 96 % of control, the T/C (dose: 200.0 mg/kg/injection, schedule: Q04DX002 (ip), vehicle: Klucel (hydroxypropylcellulose) (HPC)) is reported as 100 % of control and the T/C (dose: 400.0 mg/kg/injection, schedule: Q04DX002 (ip), vehicle: Klucel (hydroxypropylcellulose) (HPC)) is reported as 86 % of control.
`S=C(NCCS)Nc1ccccc1` was tested, and the T/C [1] was 98 % of control, the T/C [2] was 105 % of control and the T/C [3] was 99 % of control.
With `CCC(O)c1ccc2ccccc2c1` (stereo unspecified) the T/C [6] was 98 % of control, the T/C [7] was 98 % of control and the T/C [8] was 93 % of control.
With `CCCCNC(=O)/C(=C\c1ccccc1)NC(C)=O` the T/C (dose: 3.0 mg/kg/injection, schedule: Q04DX003 (ip), vehicle: DMSO) was 92 % of control, the T/C (dose: 6.0 mg/kg/injection, schedule: Q04DX003 (ip), vehicle: DMSO) was 92 % of control and the T/C (dose: 6.25 mg/kg/injection, schedule: Q01DX009 (ip), vehicle: DMSO) was 96 % of control. For the same compound, the T/C (dose: 12.0 mg/kg/injection, schedule: Q04DX003 (ip), vehicle: DMSO) was 94 % of control, the T/C (dose: 12.5 mg/kg/injection, schedule: Q01DX009 (ip), vehicle: DMSO) was 93 % of control and the T/C (dose: 12.5 mg/kg/injection, schedule: Q04DX003 (ip), vehicle: DMSO) was 100 % of control.
